Test results from BindingDB's records for doi:10.1016/j.ejmech.2021.113607 (Institute of Medical Biology Pas, 2021).

Molecular target: T1, Adenosine receptor A2b (Homo sapiens, UniProt P29275)
T1 sequence (P29275 whole entry): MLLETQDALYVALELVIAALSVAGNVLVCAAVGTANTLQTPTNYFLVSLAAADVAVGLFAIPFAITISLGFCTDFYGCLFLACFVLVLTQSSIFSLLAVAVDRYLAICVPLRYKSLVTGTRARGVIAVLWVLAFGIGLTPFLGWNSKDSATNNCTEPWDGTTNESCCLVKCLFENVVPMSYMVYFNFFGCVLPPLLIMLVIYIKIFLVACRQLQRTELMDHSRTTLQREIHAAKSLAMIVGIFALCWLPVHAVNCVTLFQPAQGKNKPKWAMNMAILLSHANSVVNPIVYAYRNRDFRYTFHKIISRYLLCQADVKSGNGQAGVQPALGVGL
Test: Displacement of [3H]DPCPX from human adenosine A2B receptor expressed in HEK cell membrane incubated for 30 mins by microplate beta scintillation counting based radioligand inhibition assay

Q: For `CCNC(=O)[C@H]1O[C@@H](n2cnc3c(NCCCCc4ccccc4)ncnc32)[C@H](O)[C@@H]1O`, which Ki is on record?
A: 3.33 µM
